How the values were obtained:
[1] = Reactivity toward the mediator of inflammation hypochlorous acid (ethene liberation from ACC, GC); format: biochemical; settings: HOCl 25 μM, ACC 1 mM, pH 5.7, 37° C., 30 minutes
Source text: Reactivity Toward the Mediator of Inflammation Hypochlorous Acid (HOCl) Cytotoxic hypochlorous acid is a specific product of phagocytosis-competent neutrophilic granulocytes. It is used to kill phagocytosed bacteria and viruses inside these leukocytes. Hypochlorous acid is, however, secreted through the leukocyte membrane into the extracellular medium, i.e. into the surrounding tissue, and there proves to be responsible for unwanted reactions like those observed at foci of inflammation (pain, reddening, swelling). A possible procedure for detecting the reactivity toward HOCI is as follows. HOCI liberates ethene specifically from ACC (1-aminocyclopropane-1-carboxylic acid), and the ethene is determined by gas chromatography. The following mixture is chosen to examine the interaction of the test substance in this model system: [table] The hypochlorous acid is allowed to interact with the bulking agents for 30 seconds and only then is the indicator molecule ACC added. The volume-calibrated reaction vessels which are closed gas-tight are then incubated at 37° C. for 30 minutes, and the ethene liberation is measured by GC. 5-aminosalicylate is employed in concentrations of 0.5-100 μM as positive control.

Caco-2 cells = assay: Protection of intestinal cells from genotoxic agents (comet assay, menadione-induced DNA damage); format: cell-based, human; settings: menadione 2 μM alone (induced DNA damage)
Method: The procedure for the method is as follows: The human colon adenocarcinoma cell line Caco-2 was cultivated in Dulbecco's MEM/nut mix F-12 Ham medium (Gibco) with 20% FCS (Gibco) and 1% penicillin/streptomycin (Gibco). The cells were seeded in Petri dishes (ø 35 mm) 24 h before substance incubation. After incubation with the physiological extract from carob fiber (stock solution: 10% w/v carob fiber, Caromax™, Nutrinova, in cell culture medium, working solutions: 0.001-1%), the cells were washed with PBS buffer solution (phosphate buffered salt solution) and subsequently treated with the DNA-damaging agent menadione (2 μM) and trypsinized/centrifuged. This was followed by testing for the preventive activity of the carob fiber extracts. The modulation of DNA damage by the carob fiber extracts compared with the untreated control was checked by single-cell gel electrophoresis (comet assay). The extent of DNA damage was quantified from the proportion of DNA in the comet tail (% tail intensity, TI %). The independent baseline damage was always also measured in control tests.

Row | Compound | Amount of ethene liberated from ACC in % ([1]; 5-aminosalicylate 0.5 μM) | Amount of ethene liberated from ACC in % ([1]; 5-aminosalicylate 1 μM) | Amount of ethene liberated from ACC in % ([1]; 5-aminosalicylate 5 μM) | Amount of ethene liberated from ACC in % ([1]; 5-aminosalicylate 10 μM) | Amount of ethene liberated from ACC in % ([1]; 5-aminosalicylate 50 μM) | Amount of ethene liberated from ACC in % ([1]; 5-aminosalicylate 100 μM) | TI % (proportion of DNA in the comet tail, % tail intensity) (Caco-2 cells)
1 | Nc1ccc(O)c(C(=O)O)c1 [5-Aminosalicylate, 5-aminosalicylate] | 100% | 92% | 52% | 13% | 5% | 3% | –
2 | CC1=CC(=O)c2ccccc2C1=O [menadione] | – | – | – | – | – | – | 13.6%

Source: patent publication US20030224076A1, “Anti-inflammatory and chemopreventive composition” (priority 2002, published 2003)
